Assay results as given in ChEMBL document CHEMBL4138231 (Eur J Med Chem, 2018).
Activity calls are given as the source filed them. The rule behind the calls is not given here.

Columns and labels:
[1] = target: Serine/threonine-protein kinase PLK3 (Homo sapiens, UniProt Q9H4B4); assay: Inhibition human recombinant GST-tagged Plk3 catalytic domain (58 to 340 residues) expressed in baculovirus expression system after 1 hr by FRET-based Z'-Lyte assay
MCF7 = assay: Antiproliferative activity against human MCF7 cells after 72 hrs by CCK8 assay; type: functional; details: MCF7, 72 h
K562 = assay: Antiproliferative activity against human K562 cells after 72 hrs by CCK8 assay; type: functional; details: K562, 72 h
NCI-H1975 = assay: Antiproliferative activity against human NCI-H1975 cells after 72 hrs by CCK8 assay; type: functional; details: NCI-H1975, 72 h
A549 = assay: Antiproliferative activity against human A549 cells after 72 hrs by CCK8 assay; type: functional
HeLa = assay: Antiproliferative activity against human HeLa cells after 72 hrs by CCK8 assay; type: functional
[2] = target: Serine/threonine-protein kinase PLK2 (Homo sapiens, UniProt Q9NYY3); assay: Inhibition human recombinant full length GST-tagged Plk2 expressed in baculovirus expression system after 1 hr by FRET-based Z'-Lyte assay
Huh-7 = assay: Antiproliferative activity against human HuH7 cells after 72 hrs by CCK8 assay; type: functional
[3] = target: Serine/threonine-protein kinase PLK1 (Homo sapiens, UniProt P53350); assay: Inhibition human recombinant full length His-tagged Plk1 expressed in baculovirus expression system after 1 hr by FRET-based Z'-Lyte assay
Sequence of Serine/threonine-protein kinase PLK1 (P53350 whole entry): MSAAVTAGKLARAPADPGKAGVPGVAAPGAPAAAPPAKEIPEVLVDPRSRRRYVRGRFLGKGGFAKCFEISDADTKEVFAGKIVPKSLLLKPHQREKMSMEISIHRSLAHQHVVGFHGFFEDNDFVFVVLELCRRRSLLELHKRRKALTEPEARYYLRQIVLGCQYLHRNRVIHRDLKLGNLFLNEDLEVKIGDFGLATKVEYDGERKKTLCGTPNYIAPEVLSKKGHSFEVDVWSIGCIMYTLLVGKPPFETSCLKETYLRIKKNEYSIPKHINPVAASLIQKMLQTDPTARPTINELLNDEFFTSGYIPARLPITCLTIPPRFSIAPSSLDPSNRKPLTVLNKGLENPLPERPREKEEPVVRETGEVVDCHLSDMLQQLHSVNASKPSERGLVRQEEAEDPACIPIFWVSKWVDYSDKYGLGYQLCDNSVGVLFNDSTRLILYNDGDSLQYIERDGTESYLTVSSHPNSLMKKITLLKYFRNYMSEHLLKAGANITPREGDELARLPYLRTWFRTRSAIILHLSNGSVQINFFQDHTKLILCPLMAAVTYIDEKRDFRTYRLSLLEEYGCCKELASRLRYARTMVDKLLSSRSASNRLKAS

Sequence of Serine/threonine-protein kinase PLK2 (Q9NYY3 whole entry): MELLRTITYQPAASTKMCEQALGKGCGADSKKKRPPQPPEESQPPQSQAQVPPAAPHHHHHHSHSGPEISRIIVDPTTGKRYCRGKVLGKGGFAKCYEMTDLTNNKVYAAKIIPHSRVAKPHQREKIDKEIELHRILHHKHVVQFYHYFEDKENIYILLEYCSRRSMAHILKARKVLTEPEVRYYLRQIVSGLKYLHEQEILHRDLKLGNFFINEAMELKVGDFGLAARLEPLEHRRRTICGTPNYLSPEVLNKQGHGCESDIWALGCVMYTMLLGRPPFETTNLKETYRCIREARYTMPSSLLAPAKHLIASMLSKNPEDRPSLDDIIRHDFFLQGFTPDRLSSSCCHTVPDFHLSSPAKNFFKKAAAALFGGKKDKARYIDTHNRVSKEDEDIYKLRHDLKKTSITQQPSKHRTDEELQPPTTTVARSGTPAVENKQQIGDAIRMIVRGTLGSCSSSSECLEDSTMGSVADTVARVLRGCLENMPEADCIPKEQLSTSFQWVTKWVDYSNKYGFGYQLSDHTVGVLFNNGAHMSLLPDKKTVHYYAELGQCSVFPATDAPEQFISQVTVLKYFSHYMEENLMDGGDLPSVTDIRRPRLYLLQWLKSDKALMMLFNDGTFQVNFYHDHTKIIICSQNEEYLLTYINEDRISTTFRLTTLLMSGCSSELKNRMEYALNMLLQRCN
Sequence of Serine/threonine-protein kinase PLK3 (Q9H4B4 whole entry, the tested form may be a part): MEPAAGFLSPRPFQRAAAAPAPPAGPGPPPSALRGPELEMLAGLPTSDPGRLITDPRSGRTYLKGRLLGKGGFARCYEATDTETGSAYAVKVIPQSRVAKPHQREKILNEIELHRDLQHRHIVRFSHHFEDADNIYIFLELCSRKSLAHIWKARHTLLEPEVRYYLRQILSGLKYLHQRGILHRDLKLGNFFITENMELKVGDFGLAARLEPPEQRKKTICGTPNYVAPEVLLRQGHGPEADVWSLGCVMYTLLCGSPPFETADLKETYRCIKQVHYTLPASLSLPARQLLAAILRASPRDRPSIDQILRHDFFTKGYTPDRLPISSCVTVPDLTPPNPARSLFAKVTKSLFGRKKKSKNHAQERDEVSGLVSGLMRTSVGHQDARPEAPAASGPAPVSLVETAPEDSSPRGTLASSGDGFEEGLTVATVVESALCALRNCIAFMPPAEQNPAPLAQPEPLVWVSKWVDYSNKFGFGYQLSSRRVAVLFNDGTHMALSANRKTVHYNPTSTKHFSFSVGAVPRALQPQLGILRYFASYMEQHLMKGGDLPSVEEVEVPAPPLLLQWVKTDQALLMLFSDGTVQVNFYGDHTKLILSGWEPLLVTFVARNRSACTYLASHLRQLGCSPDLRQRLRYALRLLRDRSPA

Compound	IC50 [1] [µM]	GI50 (MCF7) [µM]	GI50 (K562) [µM]	GI50 (NCI-H1975) [µM]	GI50 (A549)	GI50 (HeLa)	IC50 [2] [µM]	GI50 (Huh-7)	IC50 [3] [µM]	GI50 (A549; A549, 72 h) [µM]	GI50 (Huh-7; Huh-7, 72 h) [µM]
CCC1C(=O)N(C)c2cnc(-n3ccc4cc(F)ccc43)nc2N1c1ccn(C)n1 (racemic)	> 10	24.7	6.07	28.6	inactive	inactive	1.5	inactive	> 10	–	–
CCC1C(=O)N(C)c2cnc(-n3ccc4cc(C(=O)NCC(C)C)ccc43)nc2N1c1ccn(C)n1 (racemic)	> 10	4.81	5.6	10.2	–	4.97 µM	0.159	–	–	19.2	5.07
